Results taken from PubChem BioAssay (NCI).
Where “and” joins values, the source holds several entries; their conditions need not be identical. Equal entries are not always repeated.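 All cell lines were grown in 96-well plates and treated with compound for 48 hours. GI50 = concentration required for 50% inhibition of growth. The concentration for full growth arrest is given as TGI.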

How the values were obtained:
Assay in all cases: NCI tumour cell line growth inhibition, 48 h
[1] = tested on: DU-145 prostate
[2] = tested on: RXF 393 renal
[3] = tested on: NCI-H226 lung
[4] = tested on: UO-31 renal
[5] = tested on: OVCAR-5 ovarian
[6] = tested on: A498 renal
[7] = tested on: HL-60(TB) leukemia
[8] = tested on: SK-MEL-5 melanoma
[9] = tested on: SF-539 CNS
[10] = tested on: UACC-62 melanoma
[11] = tested on: COLO 205 colon
[12] = tested on: KM12 colon
[13] = tested on: MDA-MB-435
[14] = tested on: SR leukemia

Row | Compound | TGI [1] | TGI [2] | TGI [3] | GI50 [4] | TGI [4] | GI50 [5] | TGI [5] | GI50 [6] | TGI [6] | GI50 [7] | TGI [7] | TGI [8] | TGI [9] | GI50 [10] | TGI [10] | TGI [11] | GI50 [12] | TGI [12] | TGI [13] | TGI [14]
1 | O=[N+]([O-])c1ccc(OC2CC3C4C=CC3C2C4)c([N+](=O)[O-])c1 (configuration not stated) | > 100 µM | > 100 µM | > 100 µM | > 100 µM | > 100 µM | > 100 µM | > 100 µM | 96.5 µM and > 31.6 µM | > 100 µM | 69.7 µM | > 100 µM | > 100 µM | > 100 µM | 84.4 µM and > 31.6 µM | > 100 µM | > 100 µM | > 100 µM | > 100 µM | > 100 µM | –
2 | C=C1CCC2[C@@H](CCC3[C@]2(C)CCC[C@]3(C)C(=O)OC)C1CC=O (some centres not stated) | – | – | 37.2 µM | 14.8 µM | 28.9 µM | 16.7 µM | 31.8 µM | 17.2 µM | 31.9 µM | – | 40.1 µM | 33.9 µM | 31.1 µM | – | 31.6 µM | 35.5 µM | 18.7 µM | 36.6 µM | – | –
3 | CC(C)(C)C1=CC(C)(n2[nH]c(=O)n(-c3ccccc3)c2=O)C=C(C(C)(C)C)C1=O | > 100 µM | – | > 100 µM | – | > 100 µM | – | – | – | > 100 µM | – | – | > 100 µM | > 100 µM | – | > 100 µM | > 100 µM | – | > 100 µM | > 100 µM | –
4 | O=[N+]([O-])/C(C(Cl)=C(Cl)Cl)=C(/Cl)SCc1ccccc1 | 32.5 µM | 9.35 µM | 56.7 µM | – | 4.83 µM | – | 17.5 µM | – | 40.8 µM | – | 0.437 µM | 20.8 µM | 32.3 µM | – | 14.4 µM | 4.49 µM | – | 34.6 µM | 5.12 µM | –
5 | CCN(CC)c1ccc2c(c1)Oc1ccc(N(CC)CC)cc1C21Oc2ccccc2-c2c1c1ccccc1n2CC (configuration not stated) | – | > 100 µM | > 100 µM | – | 63.2 µM | – | – | – | > 100 µM | – | 11 µM | 25.3 µM | – | – | > 100 µM | > 100 µM | – | – | – | > 100 µM
6 | COc1ccc2c(c1)c1c(n2CCN(C)C)-c2ccccc2CC1 | 29.4 µM | – | 24.6 µM | – | 26.4 µM | – | 32.2 µM | – | – | – | – | 32.7 µM | 27 µM | – | 28 µM | 27.2 µM | – | 28 µM | 36.5 µM | –
7 | C/C(=C\CBr)CCC(Br)C(C)(C)Cl (configuration not stated) | – | > 100 µM | > 100 µM | – | > 100 µM | – | > 100 µM | – | – | – | – | > 100 µM | > 100 µM | – | > 100 µM | > 100 µM | – | > 100 µM | – | > 100 µM
8 | CN(C)C(=NCc1ccccc1)NC#N | – | – | – | – | > 100 µM | – | – | – | – | – | – | > 100 µM | > 100 µM | – | > 100 µM | > 100 µM | – | > 100 µM | – | –
9 | O=[N+]([O-])c1ccc(-c2nc3ccc(Cl)cc3[nH]2)cc1 | > 100 µM | – | > 100 µM | – | > 100 µM | – | – | – | – | – | – | > 100 µM | > 100 µM | – | > 100 µM | > 100 µM | – | – | > 100 µM | > 100 µM
10 | CCOC(=O)/C(C#N)=C(O)/C(=C\c1ccc(Br)cc1)NC(=O)c1ccccc1 | – | – | > 100 µM | – | > 100 µM | – | > 100 µM | – | > 100 µM | – | > 100 µM | > 100 µM | > 100 µM | – | > 100 µM | > 100 µM | – | > 100 µM | – | –
11 | COc1ccc(/C=N/n2c(C)n[nH]c2=O)c(OC)c1 | > 100 µM | – | > 100 µM | – | > 100 µM | – | > 100 µM | – | > 100 µM | – | – | – | > 100 µM | – | > 100 µM | > 100 µM | – | > 100 µM | > 100 µM | –
12 | COC(=O)[C@]1(NC(=O)c2ccccc2)C[C@H]1C=O | > 100 µM | > 100 µM | > 100 µM | – | > 100 µM | – | > 100 µM | – | > 100 µM | – | – | > 100 µM | > 100 µM | – | > 100 µM | > 100 µM | – | > 100 µM | > 100 µM | 53.9 µM
13 | N#Cc1c2c(c(N)oc1=O)C(c1ccccc1)CC(=O)N2 (configuration not stated) | > 100 µM | > 100 µM | > 100 µM | – | > 100 µM | – | > 100 µM | – | – | – | > 100 µM | > 100 µM | > 100 µM | – | > 100 µM | > 100 µM | – | > 100 µM | > 100 µM | –
14 | CCOC(=O)CNC(=O)C(CSC(=O)N(O)c1ccc(Cl)cc1)NC(=O)CCC(N)C(=O)OCC (configuration not stated) | > 50 µM | > 50 µM | > 50 µM | – | > 50 µM | – | > 50 µM | – | – | – | – | > 50 µM | > 50 µM | – | > 50 µM | > 50 µM | – | > 50 µM | > 50 µM | > 50 µM
15 | O=C1Cc2c([nH]c3ccc(Br)cc23)-c2cc(O)c(O)cc2N1 | > 100 µM | > 100 µM | > 100 µM | – | > 100 µM | – | > 100 µM | – | > 100 µM | – | – | – | – | – | > 100 µM | > 100 µM | – | > 100 µM | > 100 µM | –
16 | CCCCCCCC1(N=[N+]=[N-])C(=O)Nc2ccccc2C1=O (configuration not stated) | 31.8 µM | 25.1 µM | – | – | 25.3 µM | – | 34 µM | – | 14 µM | – | – | 28.4 µM | 29.6 µM | – | 23.8 µM | 36.3 µM | – | 57.7 µM | 34.2 µM | 90 µM
17 | CCOP1(=O)C=C(C)C(Cl)=C(C)C1 (configuration not stated) | – | 77.2 µM | 59.9 µM | – | > 100 µM | – | > 100 µM | – | – | – | 53.9 µM | > 100 µM | 59.5 µM | – | 33.9 µM | 24.4 µM | – | 34.5 µM | – | > 100 µM
18 | COC(=O)[C@@]1(C(C)CC(=O)O)CCCCC1=O (some centres not stated) | – | > 100 µM | > 100 µM | – | > 100 µM | – | > 100 µM | – | > 100 µM | – | > 100 µM | > 100 µM | > 100 µM | – | > 100 µM | > 100 µM | – | > 100 µM | – | > 100 µM
19 | CC1CN=C(N(Cc2ccccc2)C(=O)Nc2ccc(Cl)c(Cl)c2)S1 (configuration not stated) | > 100 µM | – | – | – | 97.9 µM | – | > 100 µM | – | > 100 µM | – | > 10 µM | 51.9 µM | > 100 µM | – | – | > 100 µM | – | > 100 µM | – | > 100 µM
